Molecules are shown by their SMILES.

Consider three molecules from article PMC4297530 (Biological psychiatry, 2014).

In assay [1] the test system is GR translocation in RN46A-B14 cells. The assay is described as follows: DEX-induced GR-GFP translocation, high-content imaging. Format: cell-based, rat. The conditions noted are these: 2.5 μM for 1 hour, then 1 μM DEX 30 min, p<0.05 vs. vehicle.
The subject of assay [2] is Hsp90 / α-tubulin acetylation and Hsp90-FKBP51/52 association. Description: Co-immunoprecipitation and acetylation blots in RN46 serotonin cell line. Format: cell-based, rat. The conditions noted are these: 2.5 uM, RN46 cells, vs vehicle.
Assay [3] relates to plasma corticosterone (HPA axis). The assay is described as follows: Combined DEX/CRF test, plasma corticosterone. Type of assay: in vivo, mouse.
Assay [4] has as its system histone acetylation in brain. The conditions noted are these: at the dose used in present study (5 mg/kg i.p.); cited from earlier work.

For the molecule `O=C(NO)c1cnc(NC2(c3ccccc3)CC2)nc1` [ACY-738], the “GR translocation induced by dexamethasone” value in assay [1] was “significantly reduced”. Also, in assay [2] (co-IP), the “association of Hsp90 with FKBP51” value was “increased association” and the “interaction of Hsp90 with FKBP52” value was “reduced interaction”. For the same molecule, the “acetylation of α-tubulin” value in assay [2] (input samples) is listed as “increase”. For the same molecule, the “acetylation of Hsp90 at lysine 294” value in assay [2] is on record as “increased acetylation”. Besides, the “CORT response following DEX/CRF challenge” value in assay [3] (chronic ACY-738 treatment, data not shown) is on record as “did not alter”. The “histone acetylation in brain” value in assay [4] is listed as “does not elevate”.

For the molecule `CN1CCc2c(c3ccccc3n2Cc2ccc(C(=O)NO)cc2)C1` [Tubastatin A], the “GR translocation induced by dexamethasone” value in assay [1] is “significantly reduced”.

With `C[C@@H]1C[C@H]2[C@@H]3CCC4=CC(=O)C=C[C@]4(C)[C@@]3(F)[C@@H](O)C[C@]2(C)[C@@]1(O)C(=O)CO` [dexamethasone], the “percent change in plasma corticosterone, resilient mice” value in assay [3] (6 hours after DEX 0.05 mg/kg, CSDS resilient mice) is listed as −34%. Besides, in assay [3] (6 hours after DEX 0.05 mg/kg, undefeated control mice), the “percent change in plasma corticosterone, control mice” value is recorded as −13%.
